# Experimental data from US20080318892A1, “METHODS AND FORMULATIONS FOR PROTECTING CELLS, AND FOR TREATING DISEASES AND CONDITIONS BY OPTIMIZING THE INTRACELLULAR CONCENTRATION OF NAD” (priority 2007, published 2008).
# Assays:
# [1] = test system: primary human vascular SMCs; experiment: Replicative lifespan (cumulative population doublings) of primary SMCs; type: cell-based; conditions: primary adult SMCs overexpressing Nampt
# Nampt = molecular target: T1, Nampt (Homo sapiens, UniProt P43490); experiment: Nicotinamide phosphoribosyltransferase (Nampt/PBEF) activity in SMC lysates, [14C]nicotinamide to NMN; type: cell-based; conditions: human Nampt cDNA by retrovirus
# T1 construct: endogenous in cells; host or cells: human vascular SMCs (primary and HITC6), whole cell lysates
# T1 sequence (P43490 whole entry): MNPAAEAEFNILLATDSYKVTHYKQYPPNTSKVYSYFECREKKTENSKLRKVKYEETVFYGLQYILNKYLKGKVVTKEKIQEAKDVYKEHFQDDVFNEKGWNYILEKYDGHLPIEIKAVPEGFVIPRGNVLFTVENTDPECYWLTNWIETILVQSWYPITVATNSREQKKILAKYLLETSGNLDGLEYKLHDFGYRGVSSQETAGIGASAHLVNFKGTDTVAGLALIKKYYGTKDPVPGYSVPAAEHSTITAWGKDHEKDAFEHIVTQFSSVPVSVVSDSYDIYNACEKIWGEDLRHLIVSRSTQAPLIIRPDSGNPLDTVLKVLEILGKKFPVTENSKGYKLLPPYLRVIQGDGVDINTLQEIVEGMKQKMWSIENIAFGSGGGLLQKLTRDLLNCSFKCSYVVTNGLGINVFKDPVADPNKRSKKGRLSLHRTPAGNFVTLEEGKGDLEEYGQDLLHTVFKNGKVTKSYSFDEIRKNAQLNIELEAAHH
# Description: Nicotinamide Phosphoribosyltransferase Activity. […] Labelled acetone-precipitable nicotinamide mononucleotide was quantified by scintillation counting.
# Assessment of Nicotinamide Phosphoribosyltransferase Activity. […] Briefly, SMCs were lysed in buffer containing 10 mM NaH2PO4/Na2HPO4, at pH 8.8. Cell lysates were incubated with 0.5 μM [carbonyl-^14C]nicotinamide and 0.5 mM phosphoribosylpyrophosphate for 4 h on a rotating rocker at 37° C.
# [2] = test system: human aortic endothelial cells; experiment: Longevity and genomic stability (tetraploidy) of human aortic endothelial cells under glucose stress; type: cell-based; conditions: for longevity: cells overexpressing NamPT
# Text: Generation of Nampt-overexpressing HAEC populations. HAEC were infected with retrovirus encoding an eGFP-Nampt fusion protein. A control population was infected with eGFP alone. Transduced HAEC were FACS selected for low (eGFP-Namptlo) and high (eGFP-Nampthi) levels of transgene expression based on GFP fluorescence. Control cells were selected to achieve eGFP expression (eGFP+) at a level similar to the eGFP-Namptlo cells. Levels of GFP fluorescence were confirmed by microscopy.
# Assessment of longevity and genomic stability. Triplicate cell populations were plated at 1000 cells/cm2 and were serially subcultured at 80% confluence until growth curves reached plateau. Population doublings were calculated using the standard formula. At certain time points cells were harvested, fixed, and DNA content was analyzed. Tetraploid cells were counted as a proportion of the total population using ModFit software.
# HITC6 SMCs = experiment: Replicative lifespan (cumulative population doublings) of HITC6 SMCs; type: cell-based, human
# Description: To quantify replication, cells were plated at 4500 cells/cm^2 and growth medium with 10% FBS was changed every two days until cells reached 90-95% confluence. Harvested cells were counted from triplicate plates and the number of population doublings was calculated based on: [log10(number of cells harvested)−log10(number of cells seeded)]/[…] (Fukuhara, 2005). Population growth curves were compared using both nonlinear regression and two-way analysis of variance.
# Cell Culture. Experiments were performed using primary human SMCs and the HITC6 clonal SMC line, both derived from segments of human internal thoracic artery (Li et al., 1999; Li et al., 2001). SMCs were maintained at 37° C. with 5% CO2 and cultured in Medium 199 (Invitrogen, Carlsbad, Calif., USA) supplemented with 25 mM HEPES, 10% FBS, 1% penicillin/streptomycin, and 1% L-glutamine. Phoenix cells (distributed by ATCC, Manassas, Va., USA) were maintained at 37° C. with 5% CO2 and cultured in Dulbecco's modified Eagle's medium (Invitrogen, Carlsbad, Calif., USA). To quantify replication, cells were seeded at a density of 4500 cells/cm2 and population doublings were calculated using the following formula: […].
# HDAC = experiment: Histone deacetylase (HDAC) assay in SMC lysates with [3H]-acetylated histone H4 peptide; type: biochemical, human; conditions: HITC6-PBEF SMC lysates, vehicle
# Description: HITC6 SMC's were stably transduced with pQXCIP-PURO or pQXCIP-PBEF-PURO and HDAC activity determined in cell lysates (25 μg of protein), using [^3H]histone H4 peptide as the substrate. The reactions were quenched by acid hydrolysis and catalytically released [^3H]-acetate was extracted in ethyl acetate.
# Histone Deacetylase (HDAC) Assays were employed. Histone H4 peptide (Upstate) was labeled with [^3H]-acetyl Coenzyme A (ICN) using PCAF histone acetylase. Cell lysates were harvested using Passive Lysis Buffer (Promega) and 25 μg of protein was incubated at 37° C. for 6 hours with 50,000 cpm of [^3H]-acetyl histone and 1 mM PMSF in HDAC Assay Buffer (Upstate). Released [^3H]-acetate was extracted with ethyl acetate (31) and counted on a Beckman LS3801 scintillation counter.
# HITB5 SMC's [3] = experiment: Apoptosis by TUNEL; type: cell-based, human; conditions: PBEF-overexpressing HITB5 SMCs; p<0.01
# Description: (§1) Cell Proliferation, DNA Synthesis, and Apoptosis were also evaluated. To assess SMC proliferation, cells were plated at a density of 3000 cells per cm^2 and cultured in M199 containing 5% FBS. Triplicate wells were harvested at the designated times and counted using a hemacytometer. To quantify DNA synthesis, cells in log-phase growth were incubated for 12 hours with [^3H]thymidine (10 μCi/mL) and TCA-precipitable counts determined as described (5). Thymidine incorporation was expressed relative to DNA content, quantified by spectrofluorimetry of an aliquot of cell lysate incubated with 500 μg/ml Hoechst 33258. Apoptosis was assessed in SMCs seeded on glass coverslips by in situ end-labeling of DNA fragments using terminal deoxynucleotide transferase and fluorescein 12-dUTP (Promega) (5). Cells were fixed with 4% paraformaldehyde and counterstained with Hoechst 33258.
# SIRT1 = SIRT1 deacetylase activity in live SMCs (Fluor de Lys-SIRT1 substrate, TSA-independent); type: cell-based, human; conditions: SMCs overexpressing Nampt; p=0.03, n=4
# Description: In vivo assessment of SIRT1 deacetylase activity. Cell-based assessment of SIRT1-like enzymatic activity was performed using the Fluor de lys-SIRT1 substrate (Biomol, Plymouth Meeting, Pa.), as previously described (de Boer, 2006). SMCs in phenol-red free M199 with 5% FBS were incubated for 2 h with 5 μM TSA followed by addition of the fluorogenic substrate for 4 h. Signal was quantified by spectrofluorimetry (Wallac, Wellesley, Mass.) and normalized to total protein content.
# Assessment of SIRT1 Deacetylase Activity. SIRT1 deacetylase activity was quantified in live cells as previously reported (de Boer et al, 2006). SMCs cultured in phenol red-free M199 were incubated without serum for 2 h with 1 μM trichostatin A (Sigma, St. Louis, Mo., USA) followed by addition of 25 μM Fluor-de-Lys-SIRT1 fluorogenic substrate (Biomol, Plymouth Meeting, Pa., USA) for 4 h. Media containing fluorogenic substrate and reaction product was incubated with an equal volume of SIRT1 assay buffer containing 2 mM nicotinamide and developer (Biomol, Plymouth Meeting, Pa., USA). Signal was quantified by spectrofluorometry (Wallac VICTOR-1420, PerkinElmer Life Science, Waltham, Mass., USA) and normalized to total protein content
# HITB5 SMC's [4] = experiment: DNA synthesis ([3H]thymidine incorporation); type: cell-based, human; conditions: PBEF-overexpressing HITB5 SMCs
# Description: as §1
substance,measurement,setting,value
"PBEF: 52-55 kD protein, rate-limiting enzyme for NAD+ biosynthesis from nicotinamide; tested by retroviral cDNA overexpression in cells",additional population doublings beyond vector-infected SMCs,[1],2.1±0.3 population doublings
same,prolongation of lifespan,[1]; p=0.01,34±4%
same,increase in Nampt activity in stably transduced SMCs,Nampt,7.1±3.1 fold
same,age- or high glucose-induced tetraploidy,[2]; Nampt overexpressing cells,no occurrence
same,longevity,[2]; glucose stress (30 mM glucose),significantly augmented longevity
same,longevity,[2]; normal glucose (5 mM),mildly improved longevity
same,additional population doublings,HITC6 SMCs; HITC6 SMCs overexpressing Nampt,6.3±0.3 population doublings
same,extension of lifespan,"HITC6 SMCs; HITC6 SMCs overexpressing Nampt, p=0.003",71±7%
same,additional population doublings conferred by Nampt,"HITC6 SMCs; double-transduction experiment, Nampt without SIRT1 H363Y",5.4±0.5 population doublings
same,total HDAC activity vs HITC6-Vector SMC's,HDAC,significantly greater
same,proportion of apoptotic SMC's relative to HITB5-EGFP SMC's,HITB5 SMC's [3],approximately half
same,increase in SIRT1 activity,SIRT1,86±4%
same,thymidine incorporation vs control cells,HITB5 SMC's [4],no detectable difference
